For orientation: EC50 means the concentration at which the effect is half-maximal.

Where two headings read alike, the source gives them in different places.

26 compounds from patent publication US8741906B2 (priority 2011, dated 2014) can be followed below.

One test deals with T1, human CB2 receptors (Homo sapiens, UniProt P34972).
T1 construct: expressed in transfected cells; host or cells: CHO cells
The test can be described thus: functional cAMP assay, human CB2. To be noted: CHO cells expressing human CB2, cAMP; read-out: human CB2 EC50. The test is classed as cell-based. As for the experimental part:
(§1) CHO cells expressing human CB1 or CB2 receptors are seeded 17-24 hours prior to the experiment 50.000 cells per well in a black 96 well plate with flat clear bottom (Corning Costar #3904) in DMEM (Invitrogen No. 31331), 1×HT supplement, with 10% fetal calf serum and incubated at 5% CO2 and 37° C. in a humidified incubator. The growth medium was exchanged with Krebs Ringer Bicarbonate buffer with 1 mM IBMX and incubated at 30° C. for 30 min. Compounds were added to a final assay volume of 100 μl and incubated for 30 min at 30° C. Using the cAMP-Nano-TRF detection kit the assay (Roche Diagnostics) was stopped by the addition of 50 μl lysis reagent (Tris, NaCl, 1.5% Triton X100, 2.5% NP40, 10% NaN3) and 50 μl detection solutions (20 μM mAb Alexa700-cAMP 1:1, and 48 μM Ruthenium-2-AHA-cAMP) and shaken for 2 h at room temperature. The time-resolved energy transfer is measured by a TRF reader (Evotec Technologies GmbH), equipped with a ND:YAG laser as excitation source. The plate is measured twice with the excitation at 355 nm and at the emission with a delay of 100 ns and a gate of 100 ns, total exposure time 10 s at 730 (bandwidth 30 nm) or 645 nm (bandwidth 75 nm), respectively. The FRET signal is calculated as follows: FRET=T730-Alexa730-P(T645-B645) with P=Ru730-B730/Ru645-B645, where T730 is the test well measured at 730 nM, T645 is the test well measured at 645 nm, B730 and B645 are the buffer controls at 730 nm and 645 nm, respectively. cAMP content is determined from the function of a standard curve spanning from 10 μM to 0.13 nM cAMP.
(§2) EC50 values were determined using Activity Base analysis (ID Business Solution, Limited). The EC50 values for a wide range of cannabinoid agonists generated from this assay were in agreement with the values published in the scientific literature.
Background: Changes in cAMP serve as a functional read-out for many G protein-coupled receptors.

For the next test, the target named is T2, human CB1 receptors (Homo sapiens, UniProt P21554).
T2 construct: expressed in transfected cells; host or cells: CHO cells
T2 sequence (P21554 whole entry): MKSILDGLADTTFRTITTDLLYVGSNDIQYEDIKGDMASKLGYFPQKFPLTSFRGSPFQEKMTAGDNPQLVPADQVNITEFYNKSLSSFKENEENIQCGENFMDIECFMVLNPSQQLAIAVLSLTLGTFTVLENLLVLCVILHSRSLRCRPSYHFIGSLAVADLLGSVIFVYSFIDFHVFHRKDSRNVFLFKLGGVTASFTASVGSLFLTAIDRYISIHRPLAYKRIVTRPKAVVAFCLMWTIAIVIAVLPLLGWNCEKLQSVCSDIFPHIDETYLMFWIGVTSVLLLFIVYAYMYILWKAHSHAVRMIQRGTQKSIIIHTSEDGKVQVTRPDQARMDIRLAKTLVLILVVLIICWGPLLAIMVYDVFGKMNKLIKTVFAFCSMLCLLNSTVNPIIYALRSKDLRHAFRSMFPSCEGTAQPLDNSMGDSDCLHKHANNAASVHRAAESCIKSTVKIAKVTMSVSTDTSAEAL
The test can be described thus: functional cAMP assay, human CB1. The class given is cell-based. As for the experimental part:
as §1, §2

The mark [1] stands for this setting: CHO cells expressing human CB1, cAMP, read-out: human CB1 EC50.

T1 sequence (P34972 whole entry): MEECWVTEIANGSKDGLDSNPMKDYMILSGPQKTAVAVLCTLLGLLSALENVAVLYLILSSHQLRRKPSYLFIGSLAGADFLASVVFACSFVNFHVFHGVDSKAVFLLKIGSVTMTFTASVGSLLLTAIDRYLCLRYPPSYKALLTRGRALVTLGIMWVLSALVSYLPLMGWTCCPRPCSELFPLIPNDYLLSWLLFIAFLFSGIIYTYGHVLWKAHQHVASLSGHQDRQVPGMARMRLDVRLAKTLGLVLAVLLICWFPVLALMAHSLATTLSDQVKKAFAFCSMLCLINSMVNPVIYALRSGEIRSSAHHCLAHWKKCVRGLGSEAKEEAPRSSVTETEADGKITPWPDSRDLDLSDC

Take `CC(C)(C)c1nc(N2CC[C@@H](O)[C@@H]2CO)c2nnn(Cc3ccccc3Cl)c2n1` [Example 52, (2S,3R)-1-[5-tert-Butyl-3-(2-chloro-benzyl)-3H-[1,2,3]triazolo[4,5-d]pyrimidin-7-yl]-2-hydroxymethyl-pyrrolidin-3-ol]: the EC50 at human CB2 receptors is 20.8 nM; on human CB1 receptors (setting [1]), more than 10000 nM.
For the compound `CC(C)(C)c1nc(N2CC[C@H](O)C2)c2nnn(Cc3cccc(Cl)c3Cl)c2n1` [Example 141, (S)-1-[5-tert-Butyl-3-(2,3-dichloro-benzyl)-3H-[1,2,3]triazolo[4,5-d]pyrimidin-7-yl]-pyrrolidin-3-ol], the half-maximal effective concentration (EC50) on human CB2 receptors was 0.5 nM; on human CB1 receptors (setting [1]), more than 10000 nM.
In the same order, the values of `Cc1noc(Cn2nnc3c(N4CC[C@](C)(O)C4)nc(C(C)(C)C)nc32)n1` [Example 226-a, (S)-1-(5-tert-butyl-3-((3-methyl-1,2,4-oxadiazol-5-yl)methyl)-3H-[1,2,3]triazolo[4,5-d]pyrimidin-7-yl)-3-methylpyrrolidin-3-ol] are 57 nM and more than 10000 nM.
The corresponding values for `CC(C)(C)c1nc(N2CCC(F)(F)CC2)c2nnn(Cc3ccccc3Cl)c2n1` [Example 3, 5-tert-Butyl-3-(2-chloro-benzyl)-7-(4,4-difluoro-piperidin-1-yl)-3H-[1,2,3]triazolo[4,5-d]pyrimidine] are 1.3 nM and 160 nM.
In the same order, the values of `CC(C)(C)c1nc(N2CCS(=O)(=O)CC2)c2nnn(Cc3ccccc3Cl)c2n1` [Example 21, 5-tert-Butyl-3-(2-chloro-benzyl)-7-(1,1-dioxo-1λ6-thiomorpholin-4-yl)-3H-[1,2,3]triazolo[4,5-d]pyrimidine] are 2.7 nM and 601 nM.
Consider `CC(C)(C)c1nc(N2CC[C@@](C)(O)C2)c2nnn(Cc3ccccc3C(F)(F)F)c2n1` [Example 222-b, (R)-1-(5-tert-butyl-3-(2-(trifluoromethyl)benzyl)-3H-[1,2,3]triazolo[4,5-d]pyrimidin-7-yl)-3-methylpyrrolidin-3-ol], for which the EC50 on human CB2 receptors was 5.2 nM; at human CB1 receptors (setting [1]), more than 10000 nM.
In the same order, the values of `Cc1nnc(Cn2nnc3c(N4CC[C@H](O)C4)nc(C(C)(C)C)nc32)o1` [Example 150, (S)-1-[5-tert-Butyl-3-(5-methyl-[1,3,4]oxadiazol-2-ylmethyl)-3H-[1,2,3]triazolo[4,5-d]pyrimidin-7-yl]-pyrrolidin-3-ol] are 36.3 nM and more than 10000 nM.
Consider `CC(C)(C)c1nc(N2CC(F)(F)C(F)(F)C2)c2nnn(Cc3ccccc3Cl)c2n1` [Example 43, 5-tert-Butyl-3-(2-chloro-benzyl)-7-(3,3,4,4-tetrafluoro-pyrrolidin-1-yl)-3H-[1,2,3]triazolo[4,5-d]pyrimidine], for which the EC50 on human CB2 receptors worked out at 1.2 nM; on human CB1 receptors (setting [1]), 626 nM.
Turning to `COC1CCN(c2nc(C(C)(C)C)nc3c2nnn3Cc2ccccc2Cl)C1` (stereo not drawn) [Example 28, 5-tert-Butyl-3-(2-chloro-benzyl)-7-(3-methoxy-pyrrolidin-1-yl)-3H-[1,2,3]triazolo[4,5-d]pyrimidine], the EC50 on human CB2 receptors is 11.2 nM; at human CB1 receptors (setting [1]), more than 10000 nM.
In the same order, the values of `CC(C)(C)c1nc(N2CCCS2(=O)=O)c2nnn(Cc3ccccc3Cl)c2n1` [Example 47, 5-tert-Butyl-3-(2-chloro-benzyl)-7-(1,1-dioxo-1λ6-isothiazolidin-2-yl)-3H-[1,2,3]triazolo[4,5-d]pyrimidine] are 20.2 nM and more than 10000 nM.
As to `Cn1c(Cn2nnc3c(N4CCC(F)(F)C4)nc(C(C)(C)C)nc32)nnc1S(C)(=O)=O` [Example 133, 5-tert-Butyl-7-(3,3-difluoro-pyrrolidin-1-yl)-3-(5-methanesulfonyl-4-methyl-4H-[1,2,4]triazol-3-ylmethyl)-3H-[1,2,3]triazolo[4,5-d]pyrimidine], the 50% effective concentration (EC50) is 4.4 nM on human CB2 receptors and more than 10000 nM on human CB1 receptors (setting [1]).
In the case of `Cc1nnc(Cn2nnc3c(N4CC[C@H](O)[C@@H]4CO)nc(C(C)(C)C)nc32)n1C` [Example 170, (2S,3S)-1-[5-tert-Butyl-3-(4,5-dimethyl-4H-[1,2,4]triazol-3-ylmethyl)-3H-[1,2,3]triazolo[4,5-d]pyrimidin-7-yl]-2-hydroxymethyl-pyrrolidin-3-ol], the figures for the half-maximal effective concentration (EC50) at human CB2 receptors and on human CB1 receptors were 194 nM and more than 10000 nM, respectively.
As to `CCN(CC)c1nc(C(C)(C)C)nc2c1nnn2Cc1ccccc1Cl` [Example 9, [5-tert-Butyl-3-(2-chloro-benzyl)-3H-[1,2,3]triazolo[4,5-d]pyrimidin-7-yl]-diethyl-amine], the EC50 on human CB2 receptors was 17.6 nM; at human CB1 receptors (setting [1]), more than 10000 nM.
With `CC(C)(C)c1nc(N2CCCO2)c2nnn(Cc3ccccc3Cl)c2n1` [Example 40, 5-tert-Butyl-3-(2-chloro-benzyl)-7-isoxazolidin-2-yl-3H-[1,2,3]triazolo[4,5-d]pyrimidine], the figures for the EC50 on human CB2 receptors and at human CB1 receptors (setting [1]) were 11.6 nM and more than 10000 nM, respectively.
In the same order, the values of `COc1nc(C(C)(C)C)nc2c1nnn2Cc1ccccc1Cl` [Example 207, 5-tert-Butyl-3-(2-chloro-benzyl)-7-methoxy-3H-[1,2,3]triazolo[4,5-d]pyrimidine] are 68 nM and more than 10000 nM.
The corresponding values for `CC(C)(C)c1nc(N2CCCCC2)c2nnn(Cc3ccccc3Cl)c2n1` [Example 2, 5-tert-Butyl-3-(2-chloro-benzyl)-7-piperidin-1-yl-3H-[1,2,3]triazolo[4,5-d]pyrimidine] are 1.6 nM and 555 nM.
In the same order, the values of `Cc1nnc(Cn2nnc3c(N4CC(F)(F)C(F)(F)C4)nc(C(C)(C)C)nc32)o1` [Example 175, 5-tert-Butyl-3-(5-methyl-[1,3,4]oxadiazol-2-ylmethyl)-7-(3,3,4,4-tetrafluoro-pyrrolidin-1-yl)-3H-[1,2,3]triazolo[4,5-d]pyrimidine] are 1.5 nM and more than 10000 nM.
As for `CNC1CCN(c2nc(C(C)(C)C)nc3c2nnn3Cc2ccccc2Cl)C1` (stereo not drawn) [Example 190, {1-[5-tert-Butyl-3-(2-chloro-benzyl)-3H-[1,2,3]triazolo[4,5-d]pyrimidin-7-yl]-pyrrolidin-3-yl}-methyl-amine], the results for the EC50 at human CB2 receptors and on human CB1 receptors (setting [1]) were 72.6 nM and more than 10000 nM, respectively.
For the compound `CC(C)(C)c1nc(N2C[C@@H](F)C[C@H]2C#N)c2nnn(Cc3ccccc3Cl)c2n1` [Example 46, (2S,4S)-1-[5-tert-Butyl-3-(2-chloro-benzyl)-3H-[1,2,3]triazolo[4,5-d]pyrimidin-7-yl]-4-fluoro-pyrrolidine-2-carbonitrile], the EC50 on human CB2 receptors was 4.4 nM; on human CB1 receptors (setting [1]), 2310 nM.
With `CC(C)Oc1nc(C(C)(C)C)nc2c1nnn2Cc1ccccc1Cl` [Example 209, 5-tert-Butyl-3-(2-chloro-benzyl)-7-isopropoxy-3H-[1,2,3]triazolo[4,5-d]pyrimidine], the EC50 at human CB2 receptors is 16 nM; on human CB1 receptors (setting [1]), more than 10000 nM.
The corresponding values for `Cc1noc(Cn2nnc3c(N4CC(F)(F)C(F)(F)C4)nc(C(C)(C)C)nc32)n1` [Example 174, 5-tert-Butyl-3-(3-methyl-[1,2,4]oxadiazol-5-ylmethyl)-7-(3,3,4,4-tetrafluoro-pyrrolidin-1-yl)-3H-[1,2,3]triazolo[4,5-d]pyrimidine] are 2 nM and more than 10000 nM.
For the compound `CC(C)(C)c1nc(N2CCC(F)(F)C2)c2nnn([C@@H]3CCOC3)c2n1` [Example 108, 5-tert-Butyl-7-(3,3-difluoro-pyrrolidin-1-yl)-3-(R)-tetrahydro-furan-3-yl-3H-[1,2,3]triazolo[4,5-d]pyrimidine], the EC50 on human CB2 receptors was 0.3 nM; on human CB1 receptors (setting [1]), more than 10000 nM.
Regarding `CC(C)(C)c1nc(N2CCC(F)(F)C2)c2nnn(C3COC3)c2n1` [Example 91, 5-tert-Butyl-7-(3,3-difluoro-pyrrolidin-1-yl)-3-oxetan-3-yl-3H-[1,2,3]triazolo[4,5-d]pyrimidine], the EC50 at human CB2 receptors came out at 0.3 nM.
`CC(C)(C)c1nc(N2CCC(F)(F)C2)c2nnn(S(=O)(=O)c3ccccc3Cl)c2n1` [Example 107, 5-tert-Butyl-3-(2-chloro-benzenesulfonyl)-7-(3,3-difluoro-pyrrolidin-1-yl)-3H-[1,2,3]triazolo[4,5-d]pyrimidine]: on human CB2 receptors, the EC50 is 284 nM.
Still for that read-out and setting: for `CC(C)(C)c1nc(N2CCC(F)(F)C2)c2nnn(C(=O)c3ccccc3Cl)c2n1` [Example 92, [5-tert-Butyl-7-(3,3-difluoro-pyrrolidin-1-yl)-[1,2,3]triazolo[4,5-d]pyrimidin-3-yl]-(2-chloro-phenyl)-methanone] the value was 350 nM.
Same read-out and setting: for `CC(C)(C)c1nc(N2C[C@@H](O)C(F)(F)C2)c2nnn(Cc3ccccc3Cl)c2n1` [Example 95, (R)-1-[5-tert-Butyl-3-(2-chloro-benzyl)-3H-[1,2,3]triazolo[4,5-d]pyrimidin-7-yl]-4,4-difluoro-pyrrolidin-3-ol] the value was 1.5 nM.
